Experimental data published in US11730788B2, “Use of peptides as therapeutic agent for autoimmune diseases and bone diseases” (KINE SCIENCES CO., LTD., priority 2017, dated 2023).

Tests used:
IL-6 = test: Inflammatory cytokine IL-6 reduction effect (IL-6 ELISA, THP-1 derived M1 macrophages); type: cell-based; conditions: LPS 10 ng/ml + IFN-gamma 20 ng/ml, peptide 100 ng/ml, 24 hours, similar to positive control MTX
Experimental: In order to confirm the efficacy of the synthetic peptides prepared in Example 1 to inhibit inflammatory cytokine IL-6 secretion, a THP-1 monocytic cell line was treated with PMA 50 ng/ml for 48 hours to be differentiated into M1 macrophages. After treatment with LPS 10 ng/ml and IFN-gamma 20 ng/ml to the differentiated M1 macrophages, a positive control group MTX or the synthetic peptides of the present invention were co-treated at a concentration of 100 ng/ml, respectively. Thereafter, after incubation for 24 hours, IL-6 ELISA was performed using a cultured sup.

[1] = system: Th17 cell differentiation of naive CD4+ T cells; test: Th17 cell differentiation inhibitory effect (CD4+IL-17+ T cell population); type: cell-based, mouse; conditions: IL-6 20 ng/ml + TGF-beta 5 ng/ml + TCR activation; peptide 10 ng/ml to 1000 ng/ml, 3 days; non-induced 1.2%, induced 3.14%
Experimental: In order to confirm the efficacy of the synthetic peptides prepared in Example 1 to inhibit Th17 cell differentiation, naive CD4^+ T cells extracted from lymph nodes of the mouse were treated with IL-6 20 ng/ml and TGF-beta 5 ng/ml together with TCR activation to induce differentiation into Th17 cells.
At the same time, three peptides Pep1, Pep6, and Pep8 disclosed in Table 2 of Test Example 1 were treated at a concentration of 10 ng/ml to 1000 ng/ml, respectively. Then, after incubation for 3 days, CD4+IL-17+ T cell population was analyzed.

[2] = system: collagen-induced arthritis (CIA) mouse model; test: Rheumatoid arthritis treatment effect in collagen-induced arthritis (CIA) mouse model; type: in vivo, DBA/1J mouse; conditions: intraperitoneal, 3 times a week after second immunization; versus vehicle PBS; similar efficacy to positive control MTX
Experimental: In order to confirm a rheumatoid arthritis improvement effect of the peptides prepared in Example 1, a rheumatoid arthritis mouse model was prepared with reference to a known literature (Nat Protoc. 2007; 2 (5): 1269-75.).
Specifically, a CIA mouse model is a mouse model most commonly used in a rheumatoid arthritis animal test as an autoimmune disease arthritis model having characteristics similar to human rheumatoid arthritis. In the CIA mouse model, bovine type II collagen (Chondrex, USA) was mixed and emulsified with a Freund's complete adjuvant (Chondrex, USA) at 1:1, and then first immunization was performed by injecting 50 μl of the emulsified collagen solution intradermally into a 6-week-old DBA/1J mouse tail. On 2 weeks after the first immunization, bovine type II collagen was mixed and emulsified with a Freund's incomplete adjuvant (Chondrex, USA) at 1:1, and then second immunization (boosting) was performed by injecting 50 μl of the emulsified collagen solution induced) intradermally into the mouse tail. After the second immunization, each peptide was intraperitoneally administered 3 times a week from the following day to observe a therapeutic effect of the peptides for rheumatoid arthritis.
In order to examine the progression of rheumatoid arthritis according to the peptide treatment of the present invention, the severity of rheumatoid arthritis over time was evaluated and measured by a rheumatoid arthritis progress index.
At this time, the arthritis progress index was evaluated as Points 0 to 4 per leg in accordance with the arthritis progress evaluation criteria by Rossoliniec, etc. in Table 2 below and shown to total Points 0 to 16 (sum of four legs). Thereafter, an average value of the results evaluated by the two observers was calculated to quantify the severity of arthritis.

Row | Substance | IL-6 secretion (ELISA of culture sup) (IL-6) | ratio of Th17 cells (CD4+IL-17+ T cell population) [1] | arthritis improvement (arthritis score, total Points 0 to 16) [2]
1 | KDGKDGKDG [Pep5] | significantly reduced |  | 
2 | KDGKDG [Pep1] |  | reduced similarly to the group that did not induce differentiation | efficacy of arthritis improvement was shown
3 | KDAKDAKDA [Pep8] | significantly reduced | reduced similarly to the group that did not induce differentiation | efficacy of arthritis improvement was shown
4 | KEGKEGKEG [Pep6] |  | reduced similarly to the group that did not induce differentiation | efficacy of arthritis improvement was shown
5 | KEGKEG [Pep2] | significantly reduced |  | 
6 | KEAKEAKEA [Pep7] | significantly reduced |  | efficacy of arthritis improvement was shown
7 | KEAKEA [Pep3] | significantly reduced |  | 
8 | KDAKDA [Pep4] |  |  | efficacy of arthritis improvement was shown
